Measured values as given in the Kinase Knowledgebase extract (Sharma et al. 2016).

Biological target: MAPK14 (human) (UniProt Q16539)
Assay: Inhibition of MAPK14 Kinase Activity

MAPK14 (human), sequence (Q16539 whole entry, looked up): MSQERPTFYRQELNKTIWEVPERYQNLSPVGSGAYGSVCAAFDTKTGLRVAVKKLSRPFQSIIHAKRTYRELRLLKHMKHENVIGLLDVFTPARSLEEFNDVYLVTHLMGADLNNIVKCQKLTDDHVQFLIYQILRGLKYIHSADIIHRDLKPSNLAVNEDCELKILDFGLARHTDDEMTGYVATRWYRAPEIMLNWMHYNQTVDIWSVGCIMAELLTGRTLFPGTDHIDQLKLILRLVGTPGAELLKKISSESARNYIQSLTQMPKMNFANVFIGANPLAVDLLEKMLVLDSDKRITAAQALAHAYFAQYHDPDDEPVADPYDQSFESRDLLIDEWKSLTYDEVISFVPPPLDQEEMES

IC50, ≤ 5 µM:
CC(C)Cn1c(N)nc2ccc(-c3[nH]c(C(C)(C)C)nc3-c3ccc(F)cc3F)cc21
CC(C)Cn1c(N)nc2ccc(-c3cn(C(C)C)nc3-c3ccccc3)cc21
CC(C)Cn1c(N)nc2ccc(-c3n[nH]nc3-c3ccc(F)cc3F)cc21
CC(C)Cn1c(N)nc2ccc(-c3oc(C(C)(C)C)nc3-c3ccc(F)cc3F)cc21
Fc1cccc(F)c1-c1nc(-c2ccccc2)c(-c2ccc3ncn(CC4CC4)c3c2)[nH]1
CC(C)Cn1c(N)nc2ccc(-c3c(-c4ccc(F)cc4)ncn3C)cc21
CC(C)Cn1c(N)nc2ccc(-c3nc(-c4c(Cl)cccc4Cl)[nH]c3-c3ccccc3)cc21
CC(C)(C)Cn1c(N)nc2ccc(-c3nc(-c4c(Cl)cccc4Cl)[nH]c3-c3ccc(F)cc3F)cc21
CC(C)Cn1c(N)nc2ccc(-c3[nH]c(-c4c(F)cccc4C(F)(F)F)nc3-c3ccc(F)cc3F)cc21
CC(C)Cn1c(N)nc2ccc(-c3n[nH]nc3-c3ccccc3)cc21
Cn1cnc2ccc(-c3[nH]c(-c4c(F)cccc4F)nc3-c3ccccc3)cc21
Nc1nc2ccc(-c3nc(-c4c(F)cccc4F)[nH]c3-c3ccc(F)cc3F)cc2n1CC1CC1
CCn1c(N)nc2ccc(-c3[nH]c(-c4c(F)cccc4F)nc3-c3ccccc3)cc21
Nc1nc2ccc(-c3[nH]c(-c4c(F)cccc4F)nc3-c3ccccc3)cc2n1C1CCCC1
CC(C)Cn1c(N)nc2ccc(-c3c[nH]nc3-c3ccccc3)cc21
CC(C)C(C)n1c(N)nc2ccc(-c3[nH]c(-c4c(F)cccc4F)nc3-c3ccccc3)cc21 (centres undefined)
CCOCN1=NC(=C(N1)c2ccc3nc(N)n(CC(C)C)c3c2)c4ccccc4
Cc1nc(-c2ccccc2)c(-c2ccc3nc(N)n(CC(C)C)c3c2)[nH]1
CC(C)(C)Cn1c(N)nc2ccc(-c3[nH]c(C(C)(C)C)nc3-c3ccccc3)cc21
CC(C)Cn1cnc2ccc(-c3n[nH]nc3-c3ccccc3)cc21
CC(C)Cn1c(N)nc2ccc(-c3cn(C(C)(C)C)nc3-c3ccccc3)cc21
CC(C)Cn1c(N)nc2ccc(-c3c(-c4ccccc4)ncn3C3CCCCC3)cc21
C[C@H](n1c(N)nc2ccc(-c3[nH]c(C(C)(C)C)nc3-c3ccccc3)cc21)C(C)(C)C
CCC(CC)n1c(N)nc2ccc(-c3[nH]c(-c4c(F)cccc4F)nc3-c3ccccc3)cc21
CC(C)Cn1c(N)nc2ccc(-c3c(-c4ccccc4)nc4ccccn34)cc21
CC(C)Cn1c(N)nc2ccc(-c3cn(C)nc3-c3ccccc3)cc21
CC(C)Cn1c(N)nc2ccc(-c3[nH]c(-c4ccc(Cl)cc4)nc3-c3ccccc3)cc21
CC(C)Cn1c(N)nc2ccc(-c3nc(-c4c(Cl)cccc4Cl)[nH]c3-c3ccc(F)cc3)cc21
CC(C)(C)Cn1c(N)nc2ccc(-c3[nH]c(-c4c(F)cccc4C(F)(F)F)nc3-c3ccccc3)cc21
CC(C)Cn1c(N)nc2ccc(-c3[nH]c(C(C)(C)C)nc3-c3ccc(F)cc3)cc21
Fc1cccc(F)c1-c1nc(-c2ccccc2)c(-c2ccc3nc[nH]c3c2)[nH]1
CC(C)Cn1c(N)nc2ccc(-c3[nH]c(C4CC4)nc3-c3ccccc3)cc21
CC(C)(C)Cn1cnc2ccc(-c3[nH]c(-c4c(F)cccc4F)nc3-c3ccccc3)cc21
C[C@@H](n1c(N)nc2ccc(-c3[nH]c(C(C)(C)C)nc3-c3ccccc3)cc21)C(C)(C)C
CC(C)Cn1c(N)nc2ccc(-c3[nH]c(C4CC4)nc3-c3ccc(F)cc3F)cc21
CCCn1cnc2ccc(-c3[nH]c(-c4c(F)cccc4F)nc3-c3ccccc3)cc21
CC(C)Cn1c(N)nc2ccc(-c3c(-c4ccccc4)ncn3C)cc21
CC(C)(C)Cn1c(N)nc2ccc(-c3[nH]c(-c4c(F)cccc4F)nc3-c3ccccc3)cc21
C[C@H](n1c(N)nc2ccc(-c3[nH]c(-c4c(F)cccc4F)nc3-c3ccccc3)cc21)C(C)(C)C
CC(C)Cn1c(N)nc2ccc(-c3nc(-c4c(F)cccc4Cl)[nH]c3-c3ccc(F)cc3)cc21
CC(C)Cn1c(N)nc2ccc(-c3cn(C)nc3-c3ccc(F)cc3)cc21
Nc1nc2ccc(-c3nc(-c4ccc(F)cc4F)[nH]c3-c3c(F)cccc3C(F)(F)F)cc2n1CC1CC1
Nc1nc2ccc(-c3[nH]c(-c4c(F)cccc4F)nc3-c3ccccc3)cc2n1CC1CC1
C[C@@H](n1c(N)nc2ccc(-c3[nH]c(-c4c(Cl)cccc4Cl)nc3-c3ccccc3)cc21)C(C)(C)C
CCn1cnc2ccc(-c3[nH]c(-c4c(F)cccc4F)nc3-c3ccccc3)cc21
Nc1nc2ccc(-c3[nH]c(-c4c(F)cccc4F)nc3-c3ccccc3)cc2n1-c1ccccc1
CC(C)(C)Cn1c(N)nc2ccc(-c3[nH]c(-c4c(F)cccc4Cl)nc3-c3ccc(F)cc3F)cc21
CC(C)Cn1c(N)nc2ccc(-c3c[nH]nc3-c3ccc(F)cc3F)cc21
Nc1nc2ccc(-c3nc(-c4c(F)cccc4Cl)[nH]c3-c3ccc(F)cc3F)cc2n1CC1CC1
CC(C)Cn1c(N)nc2ccc(-c3c(-c4ccccc4)nc(-c4ccc(Cl)cc4)n3C)cc21
CC(C)Cn1c(N)nc2ccc(-c3[nH]c(C(C)C)nc3-c3ccccc3)cc21
Cc1onc(-c2ccccc2)c1-c1ccc2nc(N)n(S(=O)(=O)C(C)C)c2c1
CC(C)Cn1c(N)nc2cc(-c3[nH]c(-c4c(F)cccc4Cl)nc3-c3ccccc3)ccc21
CC(C)(C)Cn1c(N)nc2ccc(-c3[nH]c(C4CC4)nc3-c3ccc(F)cc3F)cc21
CC(C)Cn1c(N)nc2ccc(-c3cn(C(C)C)nc3-c3ccc(F)cc3)cc21
C[C@@H](n1c(N)nc2ccc(-c3[nH]c(-c4c(F)cccc4F)nc3-c3ccccc3)cc21)C(C)(C)C
CC(C)n1cnc2ccc(-c3[nH]c(-c4c(F)cccc4F)nc3-c3ccccc3)cc21
Cc1nc2ccc(-c3c(-c4ccccc4)ncn3C3CCCCC3)cc2n1CC(C)C
Cn1c(N)nc2ccc(-c3[nH]c(-c4c(F)cccc4F)nc3-c3ccccc3)cc21
CC(C)Cn1c(N)nc2ccc(-c3[nH]c(-c4ccc(Cl)cc4)nc3-c3ccc(F)cc3)cc21
CC(C)Cn1cnc2ccc(-c3c(-c4ccccc4)ncn3C3CCCCC3)cc21
Nc1nc2ccc(-c3[nH]c(-c4c(F)cccc4F)nc3-c3ccccc3)cc2n1Cc1ccccc1
CCCCn1c(N)nc2ccc(-c3[nH]c(-c4c(F)cccc4F)nc3-c3ccccc3)cc21
CC(C)Cn1c(N)nc2ccc(-c3oc(C(C)(C)C)nc3-c3ccc(F)cc3)cc21
CC(C)(C)Cn1c(N)nc2ccc(-c3nc(-c4c(Cl)cccc4Cl)[nH]c3-c3ccccc3)cc21
CC(n1c(N)nc2ccc(-c3[nH]c(-c4c(F)cccc4F)nc3-c3ccccc3)cc21)C(C)(C)C (centres undefined)
CC(C)Cn1c(N)nc2ccc(-n3ccnc3-c3ccccc3)cc21
CCCCn1cnc2ccc(-c3[nH]c(-c4c(F)cccc4F)nc3-c3ccccc3)cc21
Cc1nc(-c2ccc(F)cc2F)c(-c2ccc3nc(N)n(CC(C)C)c3c2)[nH]1
CC(C)Cn1c(N)nc2ccc(-c3[nH]c(-c4ccccc4C(F)(F)F)nc3-c3ccccc3)cc21
Nc1nc2ccc(-c3[nH]c(-c4c(F)cccc4F)nc3-c3ccccc3)cc2n1Cc1cccc(F)c1
CC(C)Cn1c(N)nc2ccc(-c3cn(-c4ccccc4F)nc3-c3ccccc3)cc21
CC(C)Cn1c(N)nc2ccc(-c3c(-c4ccc(F)cc4)nc4n3CCC4)cc21
CC(C)Cn1c(N)nc2ccc(-c3c(-c4ccccc4)nc(C4CC4)n3C)cc21
CCOCn1nc(-c2ccccc2)c(-c2ccc3nc(N)n(CC(C)C)c3c2)n1
CCCn1c(N)nc2ccc(-c3[nH]c(-c4c(F)cccc4F)nc3-c3ccccc3)cc21
CC(C)Cn1c(N)nc2ccc(-c3n[nH]nc3-c3ccc(F)cc3)cc21
Clc1ccc(-c2nc(-c3ccccc3)c(-c3ccc4ncn(CC5CC5)c4c3)[nH]2)cc1
c1ccc(-c2nc(-c3ccc(OCCN4CCCCC4)cc3)[nH]c2-c2ccc3ncn(CC4CC4)c3c2)cc1
CC(C)Cn1c(N)nc2ccc(-c3cn(C(C)(C)C)nc3-c3ccc(F)cc3)cc21
CC(C)Cn1c(N)nc2ccc(-c3[nH]c(C(C)(C)C)nc3-c3ccccc3)cc21
CC(C)Cn1cnc2ccc(-c3[nH]c(-c4c(F)cccc4F)nc3-c3ccccc3)cc21
CC(C)(C)c1nc(-c2ccc3nc(N)n(CC4CC4)c3c2)c(-c2ccc(F)cc2F)[nH]1
Nc1nc2ccc(-c3nc(-c4c(Cl)cccc4Cl)[nH]c3-c3ccc(F)cc3F)cc2n1CC1CC1
